{"source": "patent US10561703B2", "about": "“Method of modulating sex hormone levels using a sex hormone secretion modulator” (GEMVAX & KAEL CO., LTD., priority 2013, dated 2020)", "system": "FSH", "test": "FSH level in blood (serum CLIA) after repeated sc PEP-1", "format": "in vivo, SD rats", "protocol": "PEP-1 (peptide of SEQ ID NO: 1), lyophilized white powder, obtained according to the method mentioned in example 1 was dissolved in 0.9% of saline, considering the correction factor of PEP-1 (purity: 94.13%, content: 92.36%, correction factor: 1.15). 50 mg/mL stock solution was further diluted into 20 mg/mL, 2 mg/mL, and 1 mg/mL with 0.9% saline, and stored at 4° C. for a week until the use.\nThe purpose of this example is to confirm the change of sexual hormones in blood from SD rats with 7 days repeated daily administration of SEQ ID NO: 1 peptide, PEP-1. This experiment followed the Ethics Regulation of Animal Test by KAMSI Inc. (Korea Animal Medical Science Institute). In addition, this experiment, Non-GLP experiment, referred to the MFDS (Ministry of Food and Drug Safety) notification; Agent 2013-40 (5th April 2013), Principles of Good Laboratory Practice (1997).\nSPF Rats (Crlj:CD(SD)) were purchased from ORIENTBio Inc. (Mokdong-ri, Buk-myeon, Gapyeong-gun, Gyeonggi-do, Republic of Korea). 75 male (6.5 weeks old and 190˜210 g) and 75 female (6.5 weeks old and 160˜180 g) rats were monitored for 4 days, and 64 of male and female rats (each) were selected for the experiment. Raising condition is as follows; 23±3° C. of temperature, […] of relative humidity, 10˜20 times/hr of number of air changes, 12 hours (8 a.m.˜8 p.m.) of lighting with 150˜300 Lux of intensity.\n64 male and female […] (mentioned above) were divided into 8 groups. Administration regimen, for example, drugs, routes, dosages, and volumes were as follows:\nThe detailed administration regimen is as follows; once a day, twice a day and twice a week in each experimental group. Injection initiated at 10 a.m. every day, and each rat was injected at one minute intervals. Rats in Group 9, 10, 13 and 14 were injected twice a week. Administration of high dose test agent preceded that of low dose. The volume of injection was calculated using recently measured weight of rats, and it was 5 mL/kg. Subcutaneous injection was performed as follows; assistant tilted the back of rat upward, and experimenter sterilized the back of rat with 70% alcohol, followed by subcutaneous injection of test agent with 26 G syringe.\n1.4 mL of blood sample (0.7 mL of serum) was collected after measurement of weight (Day 0). Next day (1 Day), 1.4 mL of blood sample (0.7 mL of serum) was collected twice after injection of test agent (4 hrs and 8 hrs after administration of test agent). For next 6 days (Day 2˜Day 7), 1.4 mL of blood was extracted once everyday (4 hours after injection of test agent). Dose and volume of test agent of each group followed the Table 3, and injection time zone was same every day. Blood was extracted from the jugular vein, and left at room temperature for 30 minutes. Serum was separated using centrifugation (10,000 rpm for 5 minutes), and stored at −70±5° C. in Deep freezer until the use. Blood extraction from each subject was done in the same time zone every day.\nA CLIA (Chemi-Luminescence Immune Assay) Kit was used to analyze Testosterone, Estradiol E2, FSH (Follicle stimulating hormone), and LH (Luteinizing hormone). Analysis was completed within 48 hrs after blood extraction (Laboratory Medicine Department, Chung-Ang University Hospital), and detailed method is as follows; One-way ANOVA was used to verify the comparison between the vehicle and PEP-1, and between different doses of PEP-1. For further analysis, Duncan test was used as parametric test and Dunnett's test as non-parametric test. p<0.05 represents the statistical significance, and all statistical analysis was carried out with SPSS 10.1.\nFSH was analyzed using the samples prepared from example 2. 100 μL of serum was used for analysis. Fundamentals of analysis is Two-site sandwich immunoassay based on direct chemi-luminescent. As mentioned in example 2, CLIA (Chemi-luminescence immune assay) Kit was used, following the manufacture's protocol."}
{"sequence": "EARPALLTSRLRFIPK (listed as Homo sapiens) [PEP-1, hormone secretion modulator / GnRH analog]", "values": [{"measurement": "FSH level in blood", "setting": "G11 Male 100 mg/kg sc 1/day x7, 4 days", "value": 0.23, "unit": "mIU/mL"}, {"measurement": "FSH level in blood", "setting": "G11 Male 100 mg/kg sc 1/day x7, 5 days", "value": 0.21, "unit": "mIU/mL"}, {"measurement": "FSH level in blood", "setting": "G11 Male 100 mg/kg sc 1/day x7, 6 days", "value": 0.12, "unit": "mIU/mL"}, {"measurement": "FSH level in blood", "setting": "G11 Male 100 mg/kg sc 1/day x7, 7 days", "value": 0.15, "unit": "mIU/mL"}, {"measurement": "FSH level in blood", "setting": "G11 Male 100 mg/kg sc 1/day x7, pre", "value": 0.17, "unit": "mIU/mL"}, {"measurement": "FSH level in blood", "setting": "G12 Female 100 mg/kg sc 1/day x7, 4 hr", "value": 0.23, "unit": "mIU/mL"}, {"measurement": "FSH level in blood", "setting": "G12 Female 100 mg/kg sc 1/day x7, 8 hr", "value": 0.25, "unit": "mIU/mL"}, {"measurement": "FSH level in blood", "setting": "G12 Female 100 mg/kg sc 1/day x7, 2 days", "value": 0.28, "unit": "mIU/mL"}, {"measurement": "FSH level in blood", "setting": "G12 Female 100 mg/kg sc 1/day x7, 3 days", "value": 0.19, "unit": "mIU/mL"}, {"measurement": "FSH level in blood", "setting": "G12 Female 100 mg/kg sc 1/day x7, 4 days", "value": 0.15, "unit": "mIU/mL"}, {"measurement": "FSH level in blood", "setting": "G12 Female 100 mg/kg sc 1/day x7, 5 days", "value": 0.21, "unit": "mIU/mL"}, {"measurement": "FSH level in blood", "setting": "G12 Female 100 mg/kg sc 1/day x7, 6 days", "value": 0.1, "unit": "mIU/mL"}, {"measurement": "FSH level in blood", "setting": "G12 Female 100 mg/kg sc 1/day x7, 7 days", "value": 0.12, "unit": "mIU/mL"}, {"measurement": "FSH level in blood", "setting": "G12 Female 100 mg/kg sc 1/day x7, pre", "value": 0.21, "unit": "mIU/mL"}, {"measurement": "FSH level in blood", "setting": "G13 Male 100 mg/kg sc 2/week x2 (days 1,7), 4 hr", "value": 0.21, "unit": "mIU/mL"}, {"measurement": "FSH level in blood", "setting": "G13 Male 100 mg/kg sc 2/week x2 (days 1,7), 8 hr", "value": 0.23, "unit": "mIU/mL"}, {"measurement": "FSH level in blood", "setting": "G13 Male 100 mg/kg sc 2/week x2 (days 1,7), 2 days", "value": 0.24, "unit": "mIU/mL"}, {"measurement": "FSH level in blood", "setting": "G13 Male 100 mg/kg sc 2/week x2 (days 1,7), 3 days", "value": 0.19, "unit": "mIU/mL"}, {"measurement": "FSH level in blood", "setting": "G13 Male 100 mg/kg sc 2/week x2 (days 1,7), 4 days", "value": 0.26, "unit": "mIU/mL"}, {"measurement": "FSH level in blood", "setting": "G13 Male 100 mg/kg sc 2/week x2 (days 1,7), 5 days", "value": 0.37, "unit": "mIU/mL"}, {"measurement": "FSH level in blood", "setting": "G13 Male 100 mg/kg sc 2/week x2 (days 1,7), 6 days", "value": 0.19, "unit": "mIU/mL"}, {"measurement": "FSH level in blood", "setting": "G13 Male 100 mg/kg sc 2/week x2 (days 1,7), 7 days", "value": 0.14, "unit": "mIU/mL"}, {"measurement": "FSH level in blood", "setting": "G13 Male 100 mg/kg sc 2/week x2 (days 1,7), pre", "value": 0.38, "unit": "mIU/mL"}, {"measurement": "FSH level in blood", "setting": "G14 Female 100 mg/kg sc 2/week x2 (days 1,7), 4 hr", "value": 0.48, "unit": "mIU/mL"}, {"measurement": "FSH level in blood", "setting": "G14 Female 100 mg/kg sc 2/week x2 (days 1,7), 8 hr", "value": 0.4, "unit": "mIU/mL"}, {"measurement": "FSH level in blood", "setting": "G14 Female 100 mg/kg sc 2/week x2 (days 1,7), 2 days", "value": 0.23, "unit": "mIU/mL"}, {"measurement": "FSH level in blood", "setting": "G14 Female 100 mg/kg sc 2/week x2 (days 1,7), 3 days", "value": 0.17, "unit": "mIU/mL"}, {"measurement": "FSH level in blood", "setting": "G14 Female 100 mg/kg sc 2/week x2 (days 1,7), 4 days", "value": 0.14, "unit": "mIU/mL"}, {"measurement": "FSH level in blood", "setting": "G14 Female 100 mg/kg sc 2/week x2 (days 1,7), 5 days", "value": 0.24, "unit": "mIU/mL"}, {"measurement": "FSH level in blood", "setting": "G14 Female 100 mg/kg sc 2/week x2 (days 1,7), 6 days", "value": 0.17, "unit": "mIU/mL"}, {"measurement": "FSH level in blood", "setting": "G14 Female 100 mg/kg sc 2/week x2 (days 1,7), 7 days", "value": 0.22, "unit": "mIU/mL"}, {"measurement": "FSH level in blood", "setting": "G14 Female 100 mg/kg sc 2/week x2 (days 1,7), pre", "value": 0.17, "unit": "mIU/mL"}, {"measurement": "FSH level in blood", "setting": "G15 Male 250 mg/kg sc 1/day x7, 4 hr", "value": 0.26, "unit": "mIU/mL"}, {"measurement": "FSH level in blood", "setting": "G15 Male 250 mg/kg sc 1/day x7, 8 hr", "value": 0.35, "unit": "mIU/mL"}, {"measurement": "FSH level in blood", "setting": "G15 Male 250 mg/kg sc 1/day x7, 2 days", "value": 0.44, "unit": "mIU/mL"}, {"measurement": "FSH level in blood", "setting": "G15 Male 250 mg/kg sc 1/day x7, 3 days", "value": 0.12, "unit": "mIU/mL"}, {"measurement": "FSH level in blood", "setting": "G15 Male 250 mg/kg sc 1/day x7, 4 days", "value": 0.23, "unit": "mIU/mL"}, {"measurement": "FSH level in blood", "setting": "G15 Male 250 mg/kg sc 1/day x7, 5 days", "value": 0.25, "unit": "mIU/mL"}, {"measurement": "FSH level in blood", "setting": "G15 Male 250 mg/kg sc 1/day x7, 6 days", "value": 0.1, "unit": "mIU/mL"}, {"measurement": "FSH level in blood", "setting": "G15 Male 250 mg/kg sc 1/day x7, 7 days", "value": 0.12, "unit": "mIU/mL"}, {"measurement": "FSH level in blood", "setting": "G15 Male 250 mg/kg sc 1/day x7, pre", "value": 0.38, "unit": "mIU/mL"}, {"measurement": "FSH level in blood", "setting": "G16 Female 250 mg/kg sc 1/day x7, 4 hr", "value": 0.27, "unit": "mIU/mL"}, {"measurement": "FSH level in blood", "setting": "G16 Female 250 mg/kg sc 1/day x7, 8 hr", "value": 0.3, "unit": "mIU/mL"}, {"measurement": "FSH level in blood", "setting": "G16 Female 250 mg/kg sc 1/day x7, 2 days", "value": 0.34, "unit": "mIU/mL"}, {"measurement": "FSH level in blood", "setting": "G16 Female 250 mg/kg sc 1/day x7, 3 days", "value": 0.20, "unit": "mIU/mL"}, {"measurement": "FSH level in blood", "setting": "G16 Female 250 mg/kg sc 1/day x7, 4 days", "value": 0.12, "unit": "mIU/mL"}, {"measurement": "FSH level in blood", "setting": "G16 Female 250 mg/kg sc 1/day x7, 5 days", "value": 0.19, "unit": "mIU/mL"}, {"measurement": "FSH level in blood", "setting": "G16 Female 250 mg/kg sc 1/day x7, 6 days", "value": 0.18, "unit": "mIU/mL"}, {"measurement": "FSH level in blood", "setting": "G16 Female 250 mg/kg sc 1/day x7, 7 days", "value": 0.08, "unit": "mIU/mL"}, {"measurement": "FSH level in blood", "setting": "G16 Female 250 mg/kg sc 1/day x7, pre", "value": 0.19, "unit": "mIU/mL"}, {"measurement": "Change in FSH level compared to baseline", "setting": "male and female, Day 1, 4 hr and 8 hr post injection, in particular high doses (G11 to G16)", "value": "slight increase"}]}
